Experiments:
Format in all cases: biochemical
[1] = biological target: T1, human VEGF receptor (VEGFR-2) (Homo sapiens, UniProt P35968); assay: VEGFR2 kinase assay; conditions: His-VEGFR-2 cytoplasmic domain, 3.6 μM ATP; Table IV, amide or urea linker; read-out: VEGFR2 Enzyme IC50
T1 construct: The cytoplasmic domain of the human VEGF receptor (VEGFR-2) was expressed; His; made in house; host or cells: insect cells (baculovirus)
Protocol: The cytoplasmic domain of the human VEGF receptor (VEGFR-2) was expressed as a Histidine-tagged fusion protein following infection of insect cells using an H is engineered baculovirus. […] Kinase assays were performed in 96 well microtiter plates that were coated overnight with 30 µg of poly-Glu-Tyr (4:1) in 10 mM Phosphate Buffered Saline (PBS), pH 7.2-7.4. The plates were incubated with 1% BSA and then washed four times with PBS prior to starting the reaction. Reactions were carried out in 120 µL reaction volumes containing 3.6 µM ATP in kinase buffer (50 mM Hepes buffer pH 7.4, 20 mM MgCl2, 0.1 mM MnCl2 and 0.2 mM Na3 VO4). […] Reactions were initiated by the addition 0.5 ng of purified protein. Following a ten minute incubation at 25 degree. […] IC50 values for compound inhibition were calculated directly from graphs of optical density (arbitrary units) versus compound concentration following subtraction of blank values.

VEGFR1 = VEGFR1 (Homo sapiens, UniProt P17948); assay: VEGFR1 enzyme assay; conditions: Table IV, amide or urea linker
Sequence of VEGFR1 (P17948 27-1338, species assumed): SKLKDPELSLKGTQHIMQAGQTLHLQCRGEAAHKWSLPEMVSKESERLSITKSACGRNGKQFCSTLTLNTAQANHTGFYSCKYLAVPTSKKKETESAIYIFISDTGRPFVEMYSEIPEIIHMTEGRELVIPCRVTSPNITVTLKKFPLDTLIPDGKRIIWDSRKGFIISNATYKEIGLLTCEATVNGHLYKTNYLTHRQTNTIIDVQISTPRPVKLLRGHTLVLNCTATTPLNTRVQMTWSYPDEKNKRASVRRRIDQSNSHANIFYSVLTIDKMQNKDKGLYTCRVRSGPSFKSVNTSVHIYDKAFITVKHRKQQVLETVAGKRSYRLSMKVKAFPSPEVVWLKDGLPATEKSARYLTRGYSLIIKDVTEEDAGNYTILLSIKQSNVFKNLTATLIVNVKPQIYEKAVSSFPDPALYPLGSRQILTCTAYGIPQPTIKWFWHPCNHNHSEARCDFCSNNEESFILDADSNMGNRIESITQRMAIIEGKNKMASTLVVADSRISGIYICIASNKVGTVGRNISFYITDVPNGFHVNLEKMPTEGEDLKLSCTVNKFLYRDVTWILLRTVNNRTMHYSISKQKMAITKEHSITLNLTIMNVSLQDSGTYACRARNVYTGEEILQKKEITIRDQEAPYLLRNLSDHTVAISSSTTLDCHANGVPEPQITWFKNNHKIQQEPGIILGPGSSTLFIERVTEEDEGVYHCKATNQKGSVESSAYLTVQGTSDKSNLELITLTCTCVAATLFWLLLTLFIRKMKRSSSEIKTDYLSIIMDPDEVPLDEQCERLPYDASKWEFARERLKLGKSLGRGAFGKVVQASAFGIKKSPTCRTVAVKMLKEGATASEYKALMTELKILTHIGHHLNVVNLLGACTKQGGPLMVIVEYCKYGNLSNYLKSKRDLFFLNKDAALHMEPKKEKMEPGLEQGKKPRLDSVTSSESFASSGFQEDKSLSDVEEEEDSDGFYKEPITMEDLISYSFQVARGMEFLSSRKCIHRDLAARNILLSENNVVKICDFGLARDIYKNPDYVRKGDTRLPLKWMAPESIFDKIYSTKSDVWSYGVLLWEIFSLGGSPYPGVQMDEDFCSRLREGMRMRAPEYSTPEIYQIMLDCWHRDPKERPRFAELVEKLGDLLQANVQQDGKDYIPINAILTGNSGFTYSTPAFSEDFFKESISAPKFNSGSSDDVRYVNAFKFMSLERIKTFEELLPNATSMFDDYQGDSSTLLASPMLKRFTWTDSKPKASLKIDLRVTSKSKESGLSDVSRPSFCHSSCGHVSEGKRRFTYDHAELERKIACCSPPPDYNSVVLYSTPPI

PDGFβ = PDGFβ (Homo sapiens, UniProt P09619); assay: PDGFβ enzyme assay; conditions: Table IV, amide or urea linker
Sequence of PDGFβ (P09619 33-1106): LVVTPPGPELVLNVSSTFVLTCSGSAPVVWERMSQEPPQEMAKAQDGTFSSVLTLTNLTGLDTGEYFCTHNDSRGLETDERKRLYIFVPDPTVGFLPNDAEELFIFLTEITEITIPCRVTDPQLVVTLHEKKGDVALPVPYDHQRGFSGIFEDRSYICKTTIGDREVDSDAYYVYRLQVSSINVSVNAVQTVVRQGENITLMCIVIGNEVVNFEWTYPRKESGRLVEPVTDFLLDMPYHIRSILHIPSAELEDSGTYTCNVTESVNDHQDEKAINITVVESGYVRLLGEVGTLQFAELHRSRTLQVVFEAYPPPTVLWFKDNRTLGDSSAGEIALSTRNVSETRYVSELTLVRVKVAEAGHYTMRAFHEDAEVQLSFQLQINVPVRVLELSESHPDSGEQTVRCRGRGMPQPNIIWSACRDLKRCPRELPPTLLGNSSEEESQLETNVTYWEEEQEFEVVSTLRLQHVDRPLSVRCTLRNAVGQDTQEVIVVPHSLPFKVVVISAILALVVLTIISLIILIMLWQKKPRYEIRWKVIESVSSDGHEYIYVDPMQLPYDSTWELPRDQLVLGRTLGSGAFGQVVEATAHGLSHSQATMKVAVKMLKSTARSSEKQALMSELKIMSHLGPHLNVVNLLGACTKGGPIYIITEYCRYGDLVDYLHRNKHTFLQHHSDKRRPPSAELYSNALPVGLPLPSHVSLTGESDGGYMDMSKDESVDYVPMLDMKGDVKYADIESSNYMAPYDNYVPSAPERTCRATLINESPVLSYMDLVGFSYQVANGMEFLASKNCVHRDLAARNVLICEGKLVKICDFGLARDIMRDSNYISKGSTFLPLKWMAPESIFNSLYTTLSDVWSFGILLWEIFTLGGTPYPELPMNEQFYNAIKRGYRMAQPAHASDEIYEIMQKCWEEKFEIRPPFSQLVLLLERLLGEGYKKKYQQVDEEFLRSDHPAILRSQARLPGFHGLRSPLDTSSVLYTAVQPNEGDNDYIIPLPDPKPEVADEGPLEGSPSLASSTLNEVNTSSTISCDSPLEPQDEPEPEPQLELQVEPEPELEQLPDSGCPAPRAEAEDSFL

T1 sequence (P35968 786-1356 limits assumed): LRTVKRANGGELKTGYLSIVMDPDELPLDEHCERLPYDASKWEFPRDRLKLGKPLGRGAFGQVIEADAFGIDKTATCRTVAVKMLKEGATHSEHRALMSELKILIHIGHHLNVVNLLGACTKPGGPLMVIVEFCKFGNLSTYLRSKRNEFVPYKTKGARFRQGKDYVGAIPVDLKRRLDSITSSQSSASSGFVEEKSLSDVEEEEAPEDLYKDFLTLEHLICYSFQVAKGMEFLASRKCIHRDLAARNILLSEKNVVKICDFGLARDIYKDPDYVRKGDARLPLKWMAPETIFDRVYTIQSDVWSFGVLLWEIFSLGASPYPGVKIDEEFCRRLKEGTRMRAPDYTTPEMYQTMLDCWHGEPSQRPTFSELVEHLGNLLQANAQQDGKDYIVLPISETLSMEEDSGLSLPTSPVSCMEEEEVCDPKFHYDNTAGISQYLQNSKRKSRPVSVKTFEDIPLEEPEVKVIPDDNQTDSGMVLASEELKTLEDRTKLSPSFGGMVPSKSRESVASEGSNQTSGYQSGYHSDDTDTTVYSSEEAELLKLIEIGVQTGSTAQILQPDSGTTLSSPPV

Structure (SMILES) | IC50 [1] [nM] | IC50 (VEGFR1) [nM] | IC50 (PDGFβ) [nM]
CCNC(=O)CC[C@H](NC(=O)c1c[nH]c(-c2cc(Oc3cc(C(=O)Nc4cc(C)ccc4F)ccc3F)ccn2)c1)C(=O)NCC (stereo in doubt) [Example 246, N,N′-diethyl-2-[({5-[4-(2-fluoro-5-{[(2-fluoro-5-methylphenyl)amino]carbonyl}phenoxy)pyridin-2-yl]-1H-pyrrol-3-yl}carbonyl)amino]pentanediamide] | 42 | 62 | 54
COC(=O)CCNC(=O)c1c[nH]c(-c2cc(Oc3ccc(NC(=O)Nc4cccc(C)c4)c(F)c3)ccn2)c1 [Example 174, methyl 3-{[(5-{4-[3-fluoro-4-({[(3-methylphenyl)amino]carbonyl}amino)phenoxy]pyridin-2-yl}-1H-pyrrol-3-yl)carbonyl]amino}propanoate] | 8 | – | 42
Cc1ccc(F)c(NC(=O)Nc2ccc(Oc3ccnc(-c4cc(C(=O)NCCCC(=O)NN)c[nH]4)c3)cc2)c1 [Example 177, 5-{4-[4-({[(2-fluoro-5-methylphenyl)amino]carbonyl}amino)phenoxy]pyridin-2-yl}-N-(4-hydrazino-4-oxobutyl)-1H-pyrrole-3-carboxamide] | 15 | – | –
COC(=O)CN(CCCNC(=O)c1c[nH]c(-c2cc(Oc3cc(C(=O)Nc4cc(C)ccc4F)ccc3F)ccn2)c1)CC(=O)OC [Example 178, dimethyl 2,2′-({3-[({5-[4-(2-fluoro-5-{[(2-fluoro-5-methylphenyl)amino]carbonyl}phenoxy)pyridin-2-yl]-1H-pyrrol-3-yl}carbonyl)amino]propyl}imino)diacetate] | 24 | 60 | –
COC(=O)CN(CCNC(=O)c1c[nH]c(-c2cc(Oc3cc(C(=O)Nc4cc(C)ccc4F)ccc3F)ccn2)c1)CC(=O)OC [Example 179, dimethyl 2,2′-({2-[({5-[4-(2-fluoro-5-{[(2-fluoro-5-methylphenyl)amino]carbonyl}phenoxy)pyridin-2-yl]-1H-pyrrol-3-yl}carbonyl)amino]ethyl}imino)diacetate] | 21 | 50 | –
Cc1ccc(F)c(NC(=O)c2ccc(F)c(Oc3ccnc(-c4cc(C(=O)NCCN)c[nH]4)c3)c2)c1 [Example 182, N-(2-aminoethyl)-5-[4-(2-fluoro-5-{[(2-fluoro-5-methylphenyl)amino]carbonyl}phenoxy)pyridin-2-yl]-1H-pyrrole-3-carboxamide] | 33 | 86 | –
Cc1ccc(F)c(NC(=O)c2ccc(F)c(Oc3ccnc(-c4cc(C(=O)NCCNC(=O)OC(C)(C)C)c[nH]4)c3)c2)c1 [Example 183, tert-butyl {2-[({5-[4-(2-fluoro-5-{[(2-fluoro-5-methylphenyl)amino]carbonyl}phenoxy)pyridin-2-yl]-1H-pyrrol-3-yl}carbonyl)amino]ethyl}carbamate] | 24 | 100 | –
Cc1ccc(F)c(NC(=O)Nc2ccc(Oc3ccnc(-c4cc(C(=O)N5CCC5)c[nH]4)c3)cc2)c1 [Example 185, 1-[4-({2-[4-(azetidin-1-ylcarbonyl)-1H-pyrrol-2-yl]pyridin-4-yl}oxy)phenyl]-3-(2-fluoro-5-methylphenyl)urea] | – | 40 | 63
Cc1ccoc1C(=O)Nc1cc(Oc2ccnc(-c3cc(C(=O)NCCCN4CCCCC4)c[nH]3)c2)ccc1F [Example 191, 5-(4-{4-fluoro-3-[(3-methyl-2-furoyl)amino]phenoxy}pyridin-2-yl)-N-(3-piperidin-1-ylpropyl)-1H-pyrrole-3-carboxamide] | 25 | 42 | –
Cc1ccoc1C(=O)Nc1cc(Oc2ccnc(-c3cc(C(=O)NCCCN4CCCC4)c[nH]3)c2)ccc1F [Example 192, 5-(4-{4-fluoro-3-[(3-methyl-2-furoyl)amino]phenoxy}pyridin-2-yl)-N-(3-pyrrolidin-1-ylpropyl)-1H-pyrrole-3-carboxamide] | 26 | 34 | –
Cc1ccoc1C(=O)Nc1cc(Oc2ccnc(-c3cc(C(=O)NCCCN4CCOCC4)c[nH]3)c2)ccc1F [Example 194, 5-(4-{4-fluoro-3-[(3-methyl-2-furoyl)amino]phenoxy}pyridin-2-yl)-N-(3-morpholin-4-ylpropyl)-1H-pyrrole-3-carboxamide] | 23 | 25 | –
Cc1ccc(F)c(NC(=O)Nc2ccc(Oc3ccnc(-c4cc(C(=O)N5CCN(C(=O)OC(C)(C)C)CC5)c[nH]4)c3)cc2F)c1 [Example 224, tert-butyl 4-[(5-{4-[3-fluoro-4-({[(2-fluoro-5-methylphenyl)amino]carbonyl}amino)phenoxy]pyridin-2-yl}-1H-pyrrol-3-yl)carbonyl]piperazine-1-carboxylate] | 10 | 21 | –
Cc1ccc(F)c(NC(=O)Nc2ccc(Oc3ccnc(-c4cc(C(=O)NCCCN5CCCC5)c[nH]4)c3)cc2F)c1 [Example 226, 5-{4-[3-fluoro-4-({[(2-fluoro-5-methylphenyl)amino]carbonyl}amino)phenoxy]pyridin-2-yl}-N-(3-pyrrolidin-1-ylpropyl)-1H-pyrrole-3-carboxamide] | 6 | 9 | –
COCCOC(=O)c1c[nH]c(-c2cc(Oc3ccc(NC(=O)Nc4cc(C)ccc4F)c(F)c3)ccn2)c1 [Example 227, 2-methoxyethyl 5-{4-[3-fluoro-4-({[(2-fluoro-5-methylphenyl)amino]carbonyl}amino)phenoxy]pyridin-2-yl}-1H-pyrrole-3-carboxylate] | 9 | 11 | –
Cc1cccc(NC(=O)Nc2ccc(Oc3ccnc(-c4cc(C(=O)NCCCN5CCC(O)CC5)c[nH]4)c3)cc2)c1 [Example 235, N-[3-(4-hydroxypiperidin-1-yl)propyl]-5-{4-[4-({[(3-methylphenyl)amino]carbonyl}amino)phenoxy]pyridin-2-yl}-1H-pyrrole-3-carboxamide] | – | 14 | 15
Cc1cccc(NC(=O)Nc2ccc(Oc3ccnc(-c4cc(C(=O)OCC(CO)(CO)CO)c[nH]4)c3)cc2)c1 [Example 240, 3-hydroxy-2,2-bis(hydroxymethyl)propyl 5-{4-[4-({[(3-methylphenyl)amino]carbonyl}amino)phenoxy]pyridin-2-yl}-1H-pyrrole-3-carboxylate] | 7 | – | –
COC(=O)CC[C@H](NC(=O)c1c[nH]c(-c2cc(Oc3cc(C(=O)Nc4cc(C)ccc4F)ccc3F)ccn2)c1)C(=O)O [Example 262, 2-[({5-[4-(2-fluoro-5-{[(2-fluoro-5-methylphenyl)amino]carbonyl}phenoxy)pyridin-2-yl]-1H-pyrrol-3-yl}carbonyl)amino]-5-methoxy-5-oxopentanoic acid] | 67 | – | 66
CCNC(=O)CC[C@H](NC(=O)c1c[nH]c(-c2cc(Oc3ccc(NC(=O)Nc4cc(C)ccc4F)cc3)ccn2)c1)C(=O)NCC [Example 263, N,N′-diethyl-2-{[(5-{4-[4-({[(2-fluoro-5-methylphenyl)amino]carbonyl}amino)phenoxy]pyridin-2-yl}-1H-pyrrol-3-yl)carbonyl]amino}pentanediamide] | 14 | – | 46
CCNC(=O)[C@H](CCC(=O)OC(C)(C)C)NC(=O)c1c[nH]c(-c2cc(Oc3cccc(NC(=O)c4occc4C)c3)ccn2)c1 [Example 265, tert-butyl 5-(ethylamino)-4-({[5-(4-{3-[(3-methyl-2-furoyl)amino]phenoxyl}pyridin-2-yl)-1H-pyrrol-3-yl]carbonyl}amino)-5-oxopentanoate] | 18 | – | –
Cc1ccoc1C(=O)Nc1cccc(Oc2ccnc(-c3cc(C(=O)N[C@@H](CCC(=O)OC(C)(C)C)C(=O)O)c[nH]3)c2)c1 [Example 266, 5-tert-butoxy-2-({[5-(4-{3-[(3-methyl-2-furoyl)amino]phenoxy}pyridin-2-yl)-1H-pyrrol-3-yl]carbonyl}amino)-5-oxopentanoic acid] | 31 | – | –
Cc1ccc(F)c(NC(=O)Nc2ccc(Oc3ccnc(-c4cc(C(=O)NCCCN5CCC(C(=O)O)C5)c[nH]4)c3)cc2)c1 (centres unmarked) [Example 268, 1-(3-{[(5-{4-[4-({[(2-fluoro-5-methylphenyl)amino]carbonyl}amino)phenoxy]pyridin-2-yl}-1H-pyrrol-3-yl)carbonyl]amino}propyl)pyrrolidine-3-carboxylic acid] | 15 | – | –
Cc1ccc(F)c(NC(=O)Nc2ccc(Oc3ccnc(-c4cc(C(=O)NCCCN5CCC(O)CC5)c[nH]4)c3)cc2)c1 [Example 272, 5-{4-[4-({[(2-fluoro-5-methylphenyl)amino]carbonyl}amino)phenoxy]pyridin-2-yl}-N-[3-(4-hydroxypiperidin-1-yl)propyl]-1H-pyrrole-3-carboxamide] | 19 | – | –
Cc1cccc(NC(=O)c2ccc(F)c(Oc3ccnc(-c4cc(C(=O)NCCC(=O)O)c[nH]4)c3)c2)c1 [Example 275, 3-[({5-[4-(2-fluoro-5-{[(3-methylphenyl)amino]carbonyl}phenoxy)pyridin-2-yl]-1H-pyrrol-3-yl}carbonyl)amino]propanoic acid] | 19 | – | –
COC(=O)CCNC(=O)c1c[nH]c(-c2cc(Oc3cc(C(=O)Nc4cccc(C)c4)ccc3F)ccn2)c1 [Example 277, methyl 3-[({5-[4-(2-fluoro-5-{[(3-methylphenyl)amino]carbonyl}phenoxy)pyridin-2-yl]-1H-pyrrol-3-yl}carbonyl)amino]propanoate] | 13 | – | –

Reference: patent US8906944B2, “Compounds as tyrosine kinase modulators” (Allergan, Inc., priority 2009, dated 2014)
